Measurements taken from the NIST ThermoML archive (doi:10.1016/j.fluid.2006.05.014).

Assay: xn = mol fraction of the nth substance listed
Settings: Liquid, dividing mass by volume

CCCCCCCC [octane] + O=C=O
Settings | mass density [kg/m3]
313.2 K, x2 = 0.11 | 730
313.2 K, x2 = 0.2134 | 729
313.2 K, x2 = 0.3377 | 729.3
313.2 K, x2 = 0.4342 | 711.9
313.2 K, x2 = 0.5534 | 692.7
313.2 K, x2 = 0.6752 | 663.5
313.2 K, x2 = 0.752 | 644.6
313.2 K, x2 = 0.8581 | 585
313.2 K, x2 = 0.9447 | 462.3
333.2 K, x2 = 0.1573 | 683.6
333.2 K, x2 = 0.206 | 678.5
333.2 K, x2 = 0.2891 | 670.1
333.2 K, x2 = 0.3593 | 660.5
333.2 K, x2 = 0.4296 | 657.3
333.2 K, x2 = 0.4956 | 641.9
333.2 K, x2 = 0.5915 | 627.8
333.2 K, x2 = 0.7413 | 556.8
333.2 K, x2 = 0.8558 | 516.5
333.2 K, x2 = 0.9383 | 436.1
353.2 K, x2 = 0.1452 | 658.6
353.2 K, x2 = 0.2452 | 651.5
353.2 K, x2 = 0.3596 | 642.5
353.2 K, x2 = 0.4373 | 635.4
353.2 K, x2 = 0.4948 | 621.3
353.2 K, x2 = 0.5783 | 614.8
353.2 K, x2 = 0.6237 | 600.1
353.2 K, x2 = 0.7761 | 585.8
353.2 K, x2 = 0.8255 | 560
353.2 K, x2 = 0.9154 | 458.2
373.2 K, x2 = 0.2172 | 550.7
373.2 K, x2 = 0.369 | 565.2
373.2 K, x2 = 0.5134 | 584.2
373.2 K, x2 = 0.5706 | 592.6
373.2 K, x2 = 0.6538 | 591.7
373.2 K, x2 = 0.7837 | 565.8
373.2 K, x2 = 0.8522 | 516.3
373.2 K, x2 = 0.902 | 425.1
393.2 K, x2 = 0.156 | 510.3
393.2 K, x2 = 0.2689 | 525.1
393.2 K, x2 = 0.3933 | 531.4
393.2 K, x2 = 0.4582 | 537.8
393.2 K, x2 = 0.522 | 544.7
393.2 K, x2 = 0.5922 | 546.8
393.2 K, x2 = 0.6738 | 551.1
393.2 K, x2 = 0.7464 | 553.2
393.2 K, x2 = 0.8146 | 519.8
393.2 K, x2 = 0.8728 | 400.2
